Data: patent US10117819B2, “Composition for hair frizz reduction” (The Procter & Gamble Company, priority 2014, dated 2018)

Assay: Penetration amount of moisture control material inside hair (extraction, HPLC)
Settings: compared to corresponding composition without 2-hydroxyethyl urea (XXVII and XXVIII)
Procedure: Each hair tress is extracted 3 times with 0.1% TFA (Trifluoroacetic acid) in methanol and the individual extracts are analyzed separately using HPLC method.

SMILES: O=C(O)c1ccccc1O [Salicylic acid]
- Increase of penetration inside hair with 2% of 2-hydroxyethyl urea: 14%
